Target: T1, Dihydroorotate dehydrogenase (quinone), mitochondrial (Plasmodium falciparum (isolate 3D7), UniProt Q08210)
T1 sequence (Q08210 whole entry): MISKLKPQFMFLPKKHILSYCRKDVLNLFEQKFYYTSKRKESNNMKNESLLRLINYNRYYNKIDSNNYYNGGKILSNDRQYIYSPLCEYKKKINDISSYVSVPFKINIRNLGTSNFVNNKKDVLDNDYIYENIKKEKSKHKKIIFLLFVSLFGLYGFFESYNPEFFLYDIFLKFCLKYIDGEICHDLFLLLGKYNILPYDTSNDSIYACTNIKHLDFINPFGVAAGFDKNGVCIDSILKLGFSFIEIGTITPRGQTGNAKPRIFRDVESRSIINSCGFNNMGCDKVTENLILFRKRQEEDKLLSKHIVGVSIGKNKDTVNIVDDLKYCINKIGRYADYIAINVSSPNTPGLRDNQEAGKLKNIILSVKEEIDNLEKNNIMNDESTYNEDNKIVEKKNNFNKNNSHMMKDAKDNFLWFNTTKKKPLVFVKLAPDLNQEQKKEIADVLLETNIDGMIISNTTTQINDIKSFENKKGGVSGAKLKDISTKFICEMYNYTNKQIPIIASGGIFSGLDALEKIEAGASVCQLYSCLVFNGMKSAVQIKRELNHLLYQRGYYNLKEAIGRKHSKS
Assay: P. falciparum growth and inhibition assays
Procedure: DSMO inhibitor stocks (as above) were diluted in DMSO using a 2 or 3-fold dilution series and then dispensed into media at 10× the final concentrations. A second step into media led to final inhibitor concentrations ranging from 0.001-30 μM and a final DMSO concentration of 0.2%. […] Data were collected using triplicate technical replicates and where indicated additional biological replicates were collected (the number of biological replicates is provided in parenthesis).

Structure (SMILES): Cc1c(Cc2ccc(C(F)(F)F)c(F)c2)c[nH]c1C(=O)NC(C)c1nc[nH]n1 (stereo unspecified) [US11903936, Compound 5]
- EC50: 39 nM

From BindingDB's records for patent US11903936 (University of Texas, 2024)
